Data reported in patent US6031084A, “Azoamide compound” (Wako Pure Chemical Industries, Ltd., priority 1998, dated 2000).

Experiments:
[1] = Measurement of Solubility in various kinds of polar solvents; format: physicochemical; details: for Solubility in 2-butanol: solvent: 2-butanol; for Solubility in Acetone: solvent: Acetone; for Solubility in Methanol: solvent: Methanol; for Solubility in Tetrahydrofuran: solvent: Tetrahydrofuran; for Solubility in Water: solvent: Water
Protocol: Solubilities of 2,2'-azobis[N-(butanol-2-yl)-2-methylpropionamide] (hereinafter abbreviated as Present compound 1) obtained by Example 1 and 2,2'-azobis[N-(propanol-2-yl)-2-methylpropionamide] (hereinafter abbreviated as Present compound 2) obtained by Example 2 to various kinds of polar solvent was measured.
The same measurement of solubility as Experiment 1 was conducted except for using of 2,2'-azobis[2-methyl-N-(2-hydroxyethyl)-propionamide] [drawing 9] (hereinafter abbreviated as Known compound 1), 2,2'-azobis {2-methyl-N-[1,1-bis(hydroxymethyl)-2-hydroxyethyl] propionamide} [drawing 10] (hereinafter abbreviated as Known compound 2) and 2,2'-azobis {2-methyl-N-[1,1-bis(hydroxymethyl)ethyl] propionamide} [drawing 11] (hereinafter abbreviated as Known compound 3) in place of Present compound 1.

[2] = 10 hours half life temperature (thermal decomposition); format: physicochemical

SMILES | Solubility in a various kind of polar solvents compared with Known compounds 1, 2 and 3 (in words) [1] | Solubility in rather low polar solvents such as 2-butanol (in words) [1] | Solubility in 2-butanol [1] | Solubility in Acetone [1] | Solubility in Methanol [1] [g] | Solubility in Tetrahydrofuran [1] | Solubility in Water [1] [g] | 10 hours half life temperature [2] [°C]
CC(CO)NC(=O)C(C)(C)N=NC(C)(C)C(=O)NC(C)CO (racemic) [Present compound 2, 2,2'-azobis[N-(propanol-2-yl)-2-methylpropionamide]] | remarkably higher | soluble | < 0.l | 0.3 g | 6.5 | 0.3 g | 0.6 | 83.1
CC(C)(N=NC(C)(C)C(=O)NCCO)C(=O)NCCO [Known compound 1, 2,2'-azobis[2-methyl-N-(2-hydroxyethyl)-propionamide]] | – | – | insoluble | insoluble | 4.55 | insoluble | 2.4 | –
CC(C)(N=NC(C)(C)C(=O)NC(CO)(CO)CO)C(=O)NC(CO)(CO)CO [Known compound 2, 2,2'-azobis {2-methyl-N-[1,1-bis(hydroxymethyl)-2-hydroxyethyl]propionamide}] | – | – | insoluble | insoluble | 1.89 | insoluble | 2.0 | –
CC(CO)(CO)NC(=O)C(C)(C)N=NC(C)(C)C(=O)NC(C)(CO)CO [Known compound 3, 2,2'-azobis {2-methyl-N-[1,1-bis(hydroxymethyl)ethyl]propionamide}] | – | – | insoluble | insoluble | 5.18 | insoluble | 0.6 | –
CC[C@H](CO)NC(=O)C(C)(C)N=NC(C)(C)C(=O)N[C@H](CC)CO [Present compound 1, 2,2'-azobis[N-(butanol-2-yl)-2-methylpropionamide]] | remarkably higher | soluble | > 10 g | > 10 g | > 10 | > 10 g | > 10 | 84.7
